Results as given in ChEMBL document CHEMBL5500341, “Discovery of pyrido[3,2-d]pyrimidin-6(5H)-one derivatives as checkpoint kinase 1 (CHK1) inhibitors with potent antitumor efficacy” (Eur J Med Chem, 2024).

Legend:
MV4-11 = experiment: Antiproliferative activity against human MV4-11 cells assessed as inhibition of cell proliferation incubated for 72 hrs by CCK-8 assay; assay type: functional, cell-based; details: MV4-11, 72 h
[1] = Metabolic stability in human liver microsome assessed as parent compound remaining preincubated with compound for 10 mins followed by NADPH addition and measured immediately by LC-MS/MS analysis; assay type: ADME; details: liver microsomes, read-out: Stability
[2] = Metabolic stability in human liver microsome assessed as parent compound remaining preincubated with compound for 10 mins followed by NADPH addition and measured at 5 min by LC-MS/MS analysis; assay type: ADME; details: liver microsomes, time 15 min, read-out: Stability
[3] = Metabolic stability in human liver microsome assessed as parent compound remaining preincubated with compound for 10 mins followed by NADPH addition and measured at 15 min by LC-MS/MS analysis; assay type: ADME; details: liver microsomes, time 25 min, read-out: Stability
[4] = Metabolic stability in human liver microsome assessed as parent compound remaining preincubated with compound for 10 mins followed by NADPH addition and measured at 30 min by LC-MS/MS analysis; assay type: ADME; details: liver microsomes, time 40 min, read-out: Stability
[5] = Metabolic stability in human liver microsome assessed as parent compound remaining preincubated with compound for 10 mins followed by NADPH addition and measured at 60 min by LC-MS/MS analysis; assay type: ADME; details: liver microsomes, time 70 min, read-out: Stability
[6] = Metabolic stability in human liver microsome assessed as half life preincubated with compound for 10 mins followed by NADPH addition and measured up to 60 min by LC-MS/MS analysis; assay type: ADME; details: liver microsomes, time < 70 min
[7] = Metabolic stability in human microsome assessed as intrinsic clearance preincubated with compound for 10 mins followed by NADPH addition and measured up to 60 min by LC-MS/MS analysis; assay type: ADME; details: microsomes, time < 70 min, read-out: CLH
[8] = Metabolic stability in human liver microsome assessed as intrinsic clearance preincubated with compound for 10 mins followed by NADPH addition and measured up to 60 min by LC-MS/MS analysis; assay type: ADME; details: liver microsomes, time < 70 min, read-out: CLH
[9] = Initial plasma concentration in ICR mouse at 2 mg/kg, iv measured up to 24 hrs by LC-MS/MS analysis; assay type: ADME, organism-based
[10] = Cmax in ICR mouse at 2 mg/kg, iv measured up to 24 hrs by LC-MS/MS analysis; assay type: ADME, organism-based; details: in vivo
[11] = Cmax in ICR mouse at 10 mg/kg, po measured up to 24 hrs by LC-MS/MS analysis; assay type: ADME, organism-based; details: in vivo
[12] = Half life in ICR mouse at 2 mg/kg, iv measured up to 24 hrs by LC-MS/MS analysis; assay type: ADME, organism-based; details: in vivo
[13] = Half life in ICR mouse at 10 mg/kg, po measured up to 24 hrs by LC-MS/MS analysis; assay type: ADME, organism-based; details: in vivo
[14] = Tmax in ICR mouse at 2 mg/kg, iv measured up to 24 hrs by LC-MS/MS analysis; assay type: ADME, organism-based; details: in vivo
[15] = Tmax in ICR mouse at 10 mg/kg, po measured up to 24 hrs by LC-MS/MS analysis; assay type: ADME, organism-based; details: in vivo
[16] = AUC (0 to t) in ICR mouse at 2 mg/kg, iv measured up to 24 hrs by LC-MS/MS analysis; assay type: ADME, organism-based; details: in vivo
[17] = AUC (0 to t) in ICR mouse at 10 mg/kg, po measured up to 24 hrs by LC-MS/MS analysis; assay type: ADME, organism-based; details: in vivo
[18] = AUC (0 to infinity) in ICR mouse at 2 mg/kg, iv measured up to 24 hrs by LC-MS/MS analysis; assay type: ADME, organism-based; details: in vivo
[19] = AUC (0 to infinity) in ICR mouse at 10 mg/kg, po measured up to 24 hrs by LC-MS/MS analysis; assay type: ADME, organism-based; details: in vivo
[20] = MRT (0 to t) in ICR mouse at 2 mg/kg, iv measured up to 24 hrs by LC-MS/MS analysis; assay type: ADME, organism-based; details: in vivo
[21] = MRT (0 to t) in ICR mouse at 10 mg/kg, po measured up to 24 hrs by LC-MS/MS analysis; assay type: ADME, organism-based; details: in vivo
[22] = MRT (0 to infinity) in ICR mouse at 2 mg/kg, iv measured up to 24 hrs by LC-MS/MS analysis; assay type: ADME, organism-based; details: in vivo
[23] = MRT (0 to infinity) in ICR mouse at 10 mg/kg, po measured up to 24 hrs by LC-MS/MS analysis; assay type: ADME, organism-based; details: in vivo
[24] = Clearance in ICR mouse at 2 mg/kg, iv measured up to 24 hrs by LC-MS/MS analysis; assay type: ADME, organism-based; details: in vivo
[25] = Volume of distribution at steady state in ICR mouse at 2 mg/kg, iv measured up to 24 hrs by LC-MS/MS analysis; assay type: ADME, organism-based; details: in vivo, read-out: Vdss
[26] = Oral bioavailability in ICR mouse at 10 mg/kg measured up to 24 hrs by LC-MS/MS analysis; assay type: ADME, organism-based; details: in vivo
[27] = molecular target: Serine/threonine-protein kinase Chk2 (Homo sapiens) (UniProt O96017); experiment: Inhibition of CHK2 (unknown origin) at 500 nM relative to control
Serine/threonine-protein kinase Chk2 (Homo sapiens), sequence (O96017 whole entry): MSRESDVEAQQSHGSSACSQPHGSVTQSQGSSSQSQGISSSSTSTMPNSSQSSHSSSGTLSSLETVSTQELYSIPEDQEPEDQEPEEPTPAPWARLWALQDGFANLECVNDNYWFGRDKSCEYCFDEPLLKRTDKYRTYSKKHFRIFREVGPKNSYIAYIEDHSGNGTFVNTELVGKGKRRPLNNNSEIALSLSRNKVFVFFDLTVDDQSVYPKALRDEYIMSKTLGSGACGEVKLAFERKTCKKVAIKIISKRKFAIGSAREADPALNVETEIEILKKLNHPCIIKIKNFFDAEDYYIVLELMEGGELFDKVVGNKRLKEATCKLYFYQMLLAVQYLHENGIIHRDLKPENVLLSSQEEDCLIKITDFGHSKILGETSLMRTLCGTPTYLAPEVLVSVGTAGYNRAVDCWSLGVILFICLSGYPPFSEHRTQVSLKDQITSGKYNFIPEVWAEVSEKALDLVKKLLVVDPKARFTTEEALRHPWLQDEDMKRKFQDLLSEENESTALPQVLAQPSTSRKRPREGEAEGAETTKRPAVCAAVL

HT-29 [28] = experiment: Antitumor activity against human HT-29 cells xenografted in female BALB/c mouse assessed as tumor growth inhibition at 30 mg/kg, iv administered once daily for 21 days and measured after 3 days by vernier calipers analysis; details: HT-29, 576 h, read-out: TGI
HT-29 [29] = experiment: Antitumor activity against human HT-29 cells xenografted in female BALB/c mouse assessed as tumor growth inhibition at 30 mg/kg, iv administered once daily for 21 days and measured after 3 days in presence of gemcitabine by vernier calipers analysis; details: HT-29, 576 h, read-out: TGI
[30] = Toxicity in female BALB/c mouse xenografted with human HT-29 cells assessed as change in body weight at 30 mg/kg, iv administered once daily for 21 days and measured after 3 days; assay type: organism-based; details: in vivo, 576 h, time 24 day
HT-29 [31] = experiment: cells; details: Homo sapiens, HT-29, 72 h
Description: Antiproliferative activity against human HT-29 cells assessed as inhibition of cell proliferation incubated for 72 hrs by CCK-8 assay

A549 = experiment: cells; details: Homo sapiens, A549, 72 h
Description: Antiproliferative activity against human A549 cells assessed as inhibition of cell proliferation incubated for 72 hrs by CCK-8 assay

OVCAR-3 = experiment: cells; details: Homo sapiens, OVCAR-3, 72 h
Description: Antiproliferative activity against human OVCAR-3 cells assessed as inhibition of cell proliferation incubated for 72 hrs by CCK-8 assay

HL-60 = experiment: cells; details: Homo sapiens, HL-60, 72 h
Description: Antiproliferative activity against human HL-60 cells assessed as inhibition of cell proliferation incubated for 72 hrs by CCK-8 assay

HCT-116 = experiment: cells; details: Homo sapiens, HCT-116, 72 h
Description: Antiproliferative activity against human HCT-116 cells assessed as inhibition of cell proliferation incubated for 72 hrs by CCK-8 assay

A2780 = experiment: cells; details: Homo sapiens, A2780, 72 h
Description: Antiproliferative activity against human A2780 cells assessed as inhibition of cell proliferation incubated for 72 hrs by CCK-8 assay

MDA-MB-468 = experiment: cells; details: Homo sapiens, MDA-MB-468, 72 h
Description: Antiproliferative activity against human MDA-MB-468 cells assessed as inhibition of cell proliferation incubated for 72 hrs by CCK-8 assay

HT-29 [32] = experiment: cells; details: Homo sapiens, HT-29, 72 h; remark: listed apart in the source
Description: Synergistic antiproliferative activity against human HT-29 cells assessed as inhibition of cell proliferation incubated for 72 hrs in presence of gemcitabine by CCK-8 assay

HT-29 [33] = experiment: cells; details: Homo sapiens, HT-29, 72 h; remark: listed apart in the source

N#Cc1ncc(Nc2ncc3c(ccc(=O)n3CC(F)F)n2)cc1N[C@@H]1CCNC1
IC50 (MV4-11): 202 nM | remaining at 0 min [1]: 100% | remaining at 5 min [2]: 60.1% | remaining at 0.25 h [3]: 24.4% | remaining at 0.5 h [4]: 8.93% | remaining at 1 h [5]: 1.96% | half-life [6]: 10.8 min | microsomal CLint [7]: 129 µL/min/mg | CLint scaled [8]: 116 mL/min/kg | C0 at 24 h [9]: 860 ng/mL | Cmax [10]: 526 ng/mL | Cmax [11]: 81.1 ng/mL | half-life [12]: 342 min | half-life [13]: 90.6 min | Tmax [14]: 4.8 min | Tmax [15]: 4.8 min | AUC(0-t) at 24 h [16]: 327 ng·h/mL | AUC(0-t) at 24 h [17]: 40.7 ng·h/mL | AUC(0-inf) [18]: 341 ng·h/mL | AUC(0-inf) [19]: 47.3 ng·h/mL | MRT last at 24 h [20]: 2.67 h | MRT last at 24 h [21]: 1 h | MRT inf [22]: 3.91 h | MRT inf [23]: 1.65 h | clearance [24]: 98.4 mL/min/kg | Vd [25]: 23.3 L/kg | bioavailability [26]: 2.77% | inhibition [27]: 22% | inhibition in vivo at 30 mg/kg (HT-29 [28]): 20.6% | inhibition in vivo at 30 mg/kg (HT-29 [29]): 42.8% | Activity [30]: Non-Toxic | IC50 (HT-29 [31]): 1170 nM | IC50 (A549): > 10 µM | IC50 (OVCAR-3): 606 nM | IC50 (HL-60): > 10 µM | IC50 (HCT-116): > 10 µM | IC50 (A2780): > 10 µM | IC50 (MDA-MB-468): > 10 µM | IC50 (HT-29 [32]): 63.5 nM | IC50 (HT-29 [33]): 63.5 nM
